Test results taken from PubChem BioAssay AID1963972 (Molecular Pharmacology Branch, DTP, NCI, 2024).
pIC50: −log10 of the molar value. Values joined by “and” are separate entries in the source; they are usually repeats but may differ in a detail not shown here. Equal values may be shown once. One block for each molecule: values may come before it.

Test system: 945468-187-T-J2-PDC spheroids viability
Test: Anticancer human tumor 945468-187-T-J2-PDC patient-derived rectal carcinoma cell line growth inhibition [PI3K]
Settings: spheroids with HUVEC and MSC; for viability, T/C: stronger effect = lower value
Outline: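 We assembled tumor spheroids that included a stromal compartment of HUVEC and MSCs, then exposed them to targeted agents alone and together with PI3K pathway inhibitors. Concentration series descended by half-log from clinically achievable Cmax levels. Viability served as the endpoint.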

[1] = curve of first compound, second compound 0.0316 µM
[2] = curve of first compound, second compound 0.1 µM
[3] = curve of first compound, second compound 0.316 µM
[4] = curve of first compound, second compound 1 µM
[5] = curve of first compound, second compound 3.16 µM
[6] = curve of first compound, second compound 10 µM
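Note: spheroids exposed to compounds for seven days before reading.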

Compound: Cn1cnc2c(F)c(Nc3ccc(Br)cc3Cl)c(C(=O)NOCCO)cc21 + CC(Nc1ncnc2nc[nH]c12)c1cc2cccc(Cl)c2c(=O)n1-c1ccccc1
- pIC50 [1]: < 5.52
- pIC50 [2]: < 5.52
- pIC50 [3]: < 5.52
- pIC50 [4]: < 5.52
- pIC50 [5]: < 5.52
- pIC50 [6]: < 5.52
- viability, T/C (second compound 0.0316 µM, first compound 0.00949 µM): 100%
- viability, T/C (second compound 0.0316 µM, first compound 0.03 µM): 103%
- viability, T/C (second compound 0.0316 µM, first compound 0.0949 µM): 84.1%
- viability, T/C (second compound 0.0316 µM, first compound 0.3 µM): 92.8%
- viability, T/C (second compound 0.0316 µM, first compound 0.949 µM): 92%
- viability, T/C (second compound 0.0316 µM, first compound 3 µM): 73.7%
- viability, T/C (second compound 0.1 µM, first compound 0.00949 µM): 99.3%
- viability, T/C (second compound 0.1 µM, first compound 0.03 µM): 82.1%
- viability, T/C (second compound 0.1 µM, first compound 0.0949 µM): 85.1%
- viability, T/C (second compound 0.1 µM, first compound 0.3 µM): 93%
- viability, T/C (second compound 0.1 µM, first compound 0.949 µM): 83.1%
- viability, T/C (second compound 0.1 µM, first compound 3 µM): 74%
- viability, T/C (second compound 0.316 µM, first compound 0.00949 µM): 111%
- viability, T/C (second compound 0.316 µM, first compound 0.03 µM): 90.8%
- viability, T/C (second compound 0.316 µM, first compound 0.0949 µM): 92.4%
- viability, T/C (second compound 0.316 µM, first compound 0.3 µM): 91.8%
- viability, T/C (second compound 0.316 µM, first compound 0.949 µM): 81.5%
- viability, T/C (second compound 0.316 µM, first compound 3 µM): 80.3%
- viability, T/C (second compound 1 µM, first compound 0.00949 µM): 122%
- viability, T/C (second compound 1 µM, first compound 0.03 µM): 106%
- viability, T/C (second compound 1 µM, first compound 0.0949 µM): 79.7%
- viability, T/C (second compound 1 µM, first compound 0.3 µM): 88.3%
- viability, T/C (second compound 1 µM, first compound 0.949 µM): 81.8%
- viability, T/C (second compound 1 µM, first compound 3 µM): 82.7%
- viability, T/C (second compound 3.16 µM, first compound 0.00949 µM): 81.6%
- viability, T/C (second compound 3.16 µM, first compound 0.03 µM): 94.3%
- viability, T/C (second compound 3.16 µM, first compound 0.0949 µM): 104%
- viability, T/C (second compound 3.16 µM, first compound 0.3 µM): 107%
- viability, T/C (second compound 3.16 µM, first compound 0.949 µM): 81.7%
- viability, T/C (second compound 3.16 µM, first compound 3 µM): 79.9%
- viability, T/C (second compound 10 µM, first compound 0.00949 µM): 92.7%
- viability, T/C (second compound 10 µM, first compound 0.03 µM): 94.1%
- viability, T/C (second compound 10 µM, first compound 0.0949 µM): 97.9%
- viability, T/C (second compound 10 µM, first compound 0.3 µM): 91.5%
- viability, T/C (second compound 10 µM, first compound 0.949 µM): 83.8%
- viability, T/C (second compound 10 µM, first compound 3 µM): 72%

Compound: Cn1cnc2c(F)c(Nc3ccc(Br)cc3Cl)c(C(=O)NOCCO)cc21
- viability, T/C (compound 0.949 µM): 83.3% [middle of 4 runs]
- viability, T/C (compound 3 µM): 79.8% [middle of 4 runs]
- pIC50 (curve of compound): < 5.52

Compound: Cn1ncnc1[C@H]1c2n[nH]c(=O)c3cc(F)cc(c23)N[C@@H]1c1ccc(F)cc1
- viability, T/C (compound 0.000316 µM): 105% [middle of 4 runs]
- viability, T/C (compound 0.00316 µM): 93.9% [middle of 4 runs]
- viability, T/C (compound 0.01 µM): 88.9% [middle of 4 runs]
- viability, T/C (compound 0.0316 µM): 110% (2×) and 104% and 93.3%
- viability, T/C (compound 0.1 µM): 104% [middle of 4 runs]
- pIC50 (curve of compound): < 7.00

Continued, in another order:

- pIC50 [1]: < 5.00
- pIC50 [2]: < 5.00
- pIC50 [3]: < 5.00
- pIC50 [4]: < 5.00
- pIC50 [5]: < 5.00
- pIC50 [6]: < 5.00
Compound: CC1(C)CCC(CN2CCN(c3ccc(C(=O)NS(=O)(=O)c4ccc(NCC5CCOCC5)c([N+](=O)[O-])c4)c(Oc4cnc5[nH]ccc5c4)c3)CC2)=C(c2ccc(Cl)cc2)C1 + CC(Nc1ncnc2nc[nH]c12)c1cc2cccc(Cl)c2c(=O)n1-c1ccccc1
- viability, T/C (second compound 0.0316 µM, first compound 0.0316 µM): 91.7%
- viability, T/C (second compound 0.0316 µM, first compound 0.1 µM): 92.2%
- viability, T/C (second compound 0.0316 µM, first compound 0.316 µM): 99.8%
- viability, T/C (second compound 0.0316 µM, first compound 1 µM): 98.2%
- viability, T/C (second compound 0.0316 µM, first compound 3.16 µM): 94%
- viability, T/C (second compound 0.0316 µM, first compound 10 µM): 81%
- viability, T/C (second compound 0.1 µM, first compound 0.0316 µM): 82.3%
- viability, T/C (second compound 0.1 µM, first compound 0.1 µM): 75.7%
- viability, T/C (second compound 0.1 µM, first compound 0.316 µM): 84.5%
- viability, T/C (second compound 0.1 µM, first compound 1 µM): 78.6%
- viability, T/C (second compound 0.1 µM, first compound 3.16 µM): 96.5%
- viability, T/C (second compound 0.1 µM, first compound 10 µM): 79.1%
- viability, T/C (second compound 0.316 µM, first compound 0.0316 µM): 97.1%
- viability, T/C (second compound 0.316 µM, first compound 0.1 µM): 93.4%
- viability, T/C (second compound 0.316 µM, first compound 0.316 µM): 93.2%
- viability, T/C (second compound 0.316 µM, first compound 1 µM): 100%
- viability, T/C (second compound 0.316 µM, first compound 3.16 µM): 119%
- viability, T/C (second compound 0.316 µM, first compound 10 µM): 80.5%
- viability, T/C (second compound 1 µM, first compound 0.0316 µM): 97.4%
- viability, T/C (second compound 1 µM, first compound 0.1 µM): 87.8%
- viability, T/C (second compound 1 µM, first compound 0.316 µM): 103%
- viability, T/C (second compound 1 µM, first compound 1 µM): 92.9%
- viability, T/C (second compound 1 µM, first compound 3.16 µM): 107%
- viability, T/C (second compound 1 µM, first compound 10 µM): 63.2%
- viability, T/C (second compound 3.16 µM, first compound 0.0316 µM): 96%
- viability, T/C (second compound 3.16 µM, first compound 0.1 µM): 115%
- viability, T/C (second compound 3.16 µM, first compound 0.316 µM): 84.8%
- viability, T/C (second compound 3.16 µM, first compound 1 µM): 134%
- viability, T/C (second compound 3.16 µM, first compound 3.16 µM): 102%
- viability, T/C (second compound 3.16 µM, first compound 10 µM): 86.6%
- viability, T/C (second compound 10 µM, first compound 0.0316 µM): 94.5%
- viability, T/C (second compound 10 µM, first compound 0.1 µM): 81.5%
- viability, T/C (second compound 10 µM, first compound 0.316 µM): 104%
- viability, T/C (second compound 10 µM, first compound 1 µM): 124%
- viability, T/C (second compound 10 µM, first compound 3.16 µM): 97.7%
- viability, T/C (second compound 10 µM, first compound 10 µM): 84.8%

- pIC50 (curve of compound): < 5.00
Compound: CC1(C)CCC(CN2CCN(c3ccc(C(=O)NS(=O)(=O)c4ccc(NCC5CCOCC5)c([N+](=O)[O-])c4)c(Oc4cnc5[nH]ccc5c4)c3)CC2)=C(c2ccc(Cl)cc2)C1
- viability, T/C (compound 0.316 µM): 94.6% [middle of 4 runs]
- viability, T/C (compound 1 µM): 103% [middle of 4 runs]
- viability, T/C (compound 3.16 µM): 96.3% [middle of 4 runs]
